From patent publication US20100280031A1, “LIPID FORMULATION OF APOPTOSIS PROMOTER” (priority 2009, published 2010) come the findings set out here.

The AUC(0-inf) is the area under the concentration-time curve extrapolated to infinity. The low end stands for less exposure, the high end for more exposure. The bioavailability is dose-corrected exposure relative to a reference, in per cent.

The nature of series [1]: PK study of ABT-737 formulations in rats. Type of series: in vivo, Sprague-Dawley rats. Particulars: for AUC(0-inf) / bioavailability / Cmax: rats, 5 mg/kg oral; for bioavailability: read-out: Bioavailability (F %). The method, then:
(§1) Serial heparinized blood samples were obtained from a tail vein of each animal prior to dosing and 0.25, 0.5, 1, 1.5, 2, 3, 4, 6, 8 and 24 hours after administration.
Analysis was performed on a Sciex API3000™ biomolecular mass analyzer with a heated nebulizer interface. ABT-737 and internal standard peak areas were determined using Sciex MacQuan™ software. The plasma drug concentration of each sample was calculated by least squares linear regression analysis (non-weighted) of the peak area ratio (parent/internal standard) of the spiked plasma standards versus concentration. The plasma concentration data were submitted to multi-exponential curve fitting using WinNonlin 3 (Pharsight).
The area under the plasma concentration-time curve from 0 to t hours (time of the last measured plasma concentration) after dosing (AUC0-t) was calculated using the linear trapezoidal rule for the plasma concentration-time profiles. The residual area extrapolated to infinity, determined as the final measured plasma concentration (Ct) divided by the terminal elimination rate constant (β), was added to AUC0-t to produce the total area under the curve (AUC0-∞). The bioavailability was calculated as the dose-normalized AUC0-∞ from oral dosing divided by the corresponding value derived from i.v. (intravenous) dosing, administered as a slow bolus to a jugular vein under light ether anesthetic.

Series [2] in a line: PK study of ABT-263 bis-HCl liquid-filled capsules in non-fasted dogs. Type of series: in vivo, beagle dogs.
Series [3] can be described thus: PK study of ABT-263 free base formulations in fasted dogs. The format is in vivo, beagle dogs. Particulars: oral. The method, then: Serial heparinized blood samples were obtained from a jugular vein of each animal prior to dosing and 0.25, 0.5, 1, 1.5, 2, 3, 4, 6, 9, 12, 15 and 24 hours after administration. […] The bioavailability was calculated as the dose-normalized AUC0-∞ from oral dosing divided by the corresponding value derived from i.v. (intravenous) dosing, administered as a slow bolus to a cephalic vein.

Series [4] can be described thus: PK study of ABT-263 free base formulations in rats. The settings on record: fasted rats, 5 mg/kg oral. Type of series: in vivo, Sprague-Dawley rats. The method, then: as §1
Series [5] in a line: PK study of ABT-263 free base liquid-filled capsules in non-fasted dogs. The format is in vivo, beagle dogs.
Series [6] in a line: food-effect PK study of ABT-263 free base formulation in dogs. Particulars: 10 mg/kg oral, 20 mg/ml, carrier PEG 400/Phosal 50 PG/DMSO (60:30:10). The format is in vivo, beagle dogs.
Series [7] in a line: Phase 1 clinical PK study of ABT-263 bis-HCl formulation (Formulation C). Particulars: humans. The format is in vivo, human. The method, then:
The formulation was prepared immediately or shortly (not more than about one month) prior to oral administration.
The study had several cycles, depending on the subjects' response to the drug.
The dose doubled until one grade 3 or two grade 2 toxicities occurred, after which dose escalated in 25-40% increments. Platelet levels were monitored and reviewed to inform dose escalation decisions.
Blood and plasma samples were protected from direct sunlight during collection, processing and storage. The timing of blood collections took priority over other scheduled study activities except for dosing. The order of blood collections was maintained to the minute such that the time intervals relative to the preceding dosing were the same for all subjects.
Blood samples were collected by venipuncture into 3-ml evacuated potassium EDTA-containing collection tubes during Cycle 1 Day −3, prior to dosing (0 hour) and at 0.5, 1, 2, 3, 4, 6, 8, 24, 48 and 72 (Day 1, predose sample) hours after dosing; Day 1, at 0.5, 1, 2, 3, 4, 6, 8 and 24 (Day 2, pre-dose sample) hours after dosing; Day 14, prior to dosing (0 hour) and at 0.5, 1, 2, 3, 4, 6 and 8 hours after dosing. Additional blood samples were collected at 0 hour (pre-dose) on Day 14, Cycle 2 through Cycle 6. Sufficient blood was collected to provide approximately 1 ml plasma from each sample. A total of 27 blood samples (approximately 81 ml) were collected per subject for pharmacokinetic analysis during Cycle 1 and one additional blood sample per subject per cycle, up to Cycle 6.

Another series can be described thus: solubility in water. Particulars: pH 2. From the text: It will be recognized that aqueous solubility of many compounds is pH-dependent; in the case of such compounds the solubility of interest herein is at a physiologically relevant pH, for example a pH of about 1 to about 8.
Setting [8] is: Sprague-Dawley, rat, plasma, po, 5 mg/kg, carrier D5W/PG/DMSO/Tween (70:20:5:5), 5 mg/ml.
Setting [9] is: Sprague-Dawley, rat, plasma, po, 5 mg/kg, carrier Imwitor 380 (unneutralized)/ethanol (95:5), 10 mg/ml.
[10] abbreviates: Sprague-Dawley, rat, plasma, po, 5 mg/kg, carrier Phosal 50 PG/ethanol (90:10), 50 mg/ml.
[11] abbreviates: Sprague-Dawley, rat, plasma, po, 5 mg/kg, carrier Phosal 53 MCT/ethanol (90:10), 10 mg/ml.
Setting [12] is: carrier Labrasol/Tween 20 (70:30), 50 mg/dog.
[13] abbreviates: carrier Phosal 53 MCT, 50 mg/dog.
Where [14] appears, read: carrier Phosal 53 MCT/Labrasol (70:30), 50 mg/dog.
The mark [15] stands for this setting: carrier Phosal 53 MCT/Tween 20 (80:20), 50 mg/dog.
Where [16] appears, read: carrier PEG 400/DMSO (90:10), 2.5 mg/kg, 5 mg/ml.
The mark [17] stands for this setting: carrier PEG 400/DMSO (90:10), 5 mg/kg, 10 mg/ml.
Setting [18] is: carrier PEG 400/DMSO (90:10), 10 mg/kg, 20 mg/ml.
[19] abbreviates: carrier PEG 400/Phosal 50 PG/DMSO (60:30:10), 5 mg/kg, 10 mg/ml.
The mark [20] stands for this setting: carrier PEG 400/Phosal 50 PG/DMSO (60:30:10), 10 mg/kg, 20 mg/ml.
[21] abbreviates: carrier PEG 400/DMSO (90:10), 2 mg/ml.
Setting [22] is: carrier PEG 400/Phosal 50 PG/DMSO (60:30:10), 5 mg/ml.
[23] abbreviates: liquid-filled capsules, carrier Capmul PG-8, 50 mg/dog.
The mark [24] stands for this setting: liquid-filled capsules, carrier Capmul PG-8/Cremophor EL (90:10), 50 mg/dog.
Setting [25] is: liquid-filled capsules, carrier Phosal 53 MCT/PEG 400 (70:30), 50 mg/dog.
[26] abbreviates: liquid-filled capsules, carrier oleic acid/PEG 400/Cremophor EL (80:10:10), 50 mg/dog.
Setting [27] is: oral, carrier PEG 400/Phosal 50 PG/DMSO (60:30:10), 20 mg/kg.
[28] abbreviates: 315 mg/day, Day 14, non-fasting.

SMILES strings stand for the structures. Read-outs that look alike come from different tables or passages of the source.

As for `CN(C)CC[C@H](CSc1ccccc1)Nc1ccc(S(=O)(=O)NC(=O)c2ccc(N3CCN(Cc4ccccc4-c4ccc(Cl)cc4)CC3)cc2)cc1[N+](=O)[O-]` [ABT-737, N-(4-(4-((4′-chloro-(1,1′-biphenyl)-2-yl)methyl)piperazin-1-yl)benzoyl)-4-(((1R)-3-(dimethylamino)-1-((phenylsulfanyl)methyl)propyl)amino)-3-nitrobenzene-sulfonamide], the area under the curve AUC(0-inf) came to 230 ng·h/mL in series [1] (setting [8]), 150 ng·h/mL in series [1] (setting [9]), 60 ng·h/mL in series [1] (setting [10]) and 130 ng·h/mL in series [1] (setting [11]). Moreover, the bioavailability in series [1] (setting [8]) was found to be 5.9%; in series [1] (setting [9]), 3.9%; in series [1] (setting [10]), 1.5%; in series [1] (setting [11]), 3.3%. For the same compound, the Cmax in series [1] (Sprague-Dawley, rat, plasma, po, 5 mg/kg, carrier Imwitor 380 (unneutralized)/ethanol (95:5), 10 mg/ml, read-out: Cmax) was found to be 29 ng/mL; in series [1] (Sprague-Dawley, rat, plasma, po, 5 mg/kg, carrier Phosal 50 PG/ethanol (90:10), 50 mg/ml, read-out: Cmax), 24 ng/mL; in series [1] (Sprague-Dawley, rat, plasma, po, 5 mg/kg, carrier Phosal 53 MCT/ethanol (90:10), 10 mg/ml, read-out: Cmax), 28 ng/mL; in series [1] (carrier D5W/PG/DMSO/Tween (70:20:5:5), 5 mg/ml) it was 32 ng/mL. In addition, the Bioavailability in rats entry in series [1] (regardless of the carrier) is on record as “extremely low”.

In the case of `CC1(C)CCC(c2ccc(Cl)cc2)=C(CN2CCN(c3ccc(C(=O)NS(=O)(=O)c4ccc(N[C@H](CCN5CCOCC5)CSc5ccccc5)c(S(=O)(=O)C(F)(F)F)c4)cc3)CC2)C1.Cl.Cl` [ABT-263 bis-HCl], the “Bioavailability (F %)” value in series [2] (carrier Labrasol, […]) is reported as 29.4%; in series [2] (setting [12]), 39.0%; in series [2] (setting [13]) it was 49.0%; in series [2] (setting [14]), 38.5%; in series [2] (carrier Phosal 53 MCT/PEG 400 (70:30), […]) it was 40.8%; in series [2] (setting [15]), 48.5%. The “AUC0-∞” value in series [2] (setting [12]) turned out to be 84800 ng·h/mL; in series [2] (setting [13]) it was 89700 ng·h/mL; in series [2] (setting [14]), 94300 ng·h/mL; in series [2] (setting [15]) it was 89900 ng·h/mL. Also, the Cmax was found to be 10310 ng/mL in series [2] (setting [12]), 9250 ng/mL in series [2] (setting [13]), 15830 ng/mL in series [2] (setting [14]) and 14020 ng/mL in series [2] (setting [15]).

For the compound `CC1(C)CCC(c2ccc(Cl)cc2)=C(CN2CCN(c3ccc(C(=O)NS(=O)(=O)c4ccc(N[C@H](CCN5CCOCC5)CSc5ccccc5)c(S(=O)(=O)C(F)(F)F)c4)cc3)CC2)C1` [ABT-263], the “AUC0-∞” value in series [3] (setting [16]) amounted to 27100 ng·h/mL; in series [3] (setting [17]), 39800 ng·h/mL; in series [3] (setting [18]) it was 58300 ng·h/mL; in series [3] (setting [19]), 115100 ng·h/mL; in series [3] (setting [20]), 173900 ng·h/mL; in series [4] (setting [21]) it was 7530 ng·h/mL. For the same compound, the “AUC0-∞” value in series [4] (setting [22]) worked out at 9960 ng·h/mL; in series [5] (setting [23]), 59100 ng·h/mL; in series [5] (setting [24]), 63300 ng·h/mL; in series [5] (setting [25]), 119800 ng·h/mL; in series [5] (setting [26]), 43800 ng·h/mL; in series [5] (setting [27]), 537200 ng·h/mL. For the same compound, the “AUC0-∞” value in series [6] (fasted dogs) came to 156100 ng·h/mL; in series [6] (non-fasted dogs) it was 255600 ng·h/mL. The Cmax amounted to 3670 ng/mL in series [3] (setting [16]); 6750 ng/mL in series [3] (setting [17]); 8460 ng/mL in series [3] (setting [18]); 13220 ng/mL in series [3] (setting [19]); 21600 ng/mL in series [3] (setting [20]); 670 ng/mL in series [4] (setting [21]). The Cmax in series [4] (setting [22]) worked out at 1050 ng/mL; in series [5] (setting [23]) it was 6400 ng/mL; in series [5] (setting [24]), 10610 ng/mL; in series [5] (setting [25]) it was 21500 ng/mL; in series [5] (setting [26]), 6840 ng/mL; in series [5] (setting [27]), 47300 ng/mL. For the same compound, the results for the Cmax in series [6] (fasted dogs) and in series [6] (non-fasted dogs) were 20300 ng/mL and 23500 ng/mL, respectively. Moreover, the “Bioavailability (F %)” value is recorded as 16.5% in series [3] (setting [17]); 12.1% in series [3] (setting [18]); 36.0% in series [3] (setting [20]); 21.6% in series [4] (setting [21]); 28.5% in series [4] (setting [22]); 24.9% in series [5] (setting [23]). The “Bioavailability (F %)” value in series [5] (setting [24]) came to 27.7%; in series [5] (setting [25]) it was 53.0%; in series [5] (setting [26]) it was 20.5%; in series [5] (setting [27]), 51.3%; in series [6] (fasted dogs, 10 mg/kg), 32.3%; in series [6] (non-fasted dogs), 52.9%. Besides, in series [7] (setting [28]), the “plasma concentration at steady state (peak)” value is “about 5.5 μg/ml”. Besides, in series [7] (setting [28]), the “plasma concentration at steady state (trough)” value was “about 3 μg/ml”. Moreover, the Tmax result in series [7] (single 315 mg dose, both fasting and non-fasting (FIG. 2)) is reported as “around 8 hours”. Besides, the solubility in water entry in the series “solubility in water” was “less than 4 μg/ml”.
